The values that follow are results of earlier work, collected in US20220117919A1, “ENHANCED BIOAVAILABILITY OF N-(2,6-BIS(1-METHYLETHYL)PHENYL)-N'-((1-(4-(DIMETHYLAMINO)-PHENYL)CYCLOPENTYL)METHYL)UREA HYDROCHLORIDE” (The Regents of the University of Michigan, priority 2015, published 2022).

The subject of the series is adrenocortical carcinoma (ACC). Particulars: cited from earlier work.

With `Clc1ccc(C(c2ccccc2Cl)C(Cl)Cl)cc1` (centres unmarked) [mitotane], the “average delay of disease progression” value (ACC patients that derive a therapeutic benefit) is reported as “five”. For the same molecule, the “share of patients with increased progression-free survival” value (ACC patients) is given as “one-quarter to one-third”.
